From US20100178658A1, “SCREENING ASSAYS FOR INHIBITORS OF BETA AMYLOID PEPTIDE ION CHANNEL FORMATION” (The Regents of the University of Michigan, priority 2007, published 2010)
“Also recorded” adds a separate entry of the source.

What was measured:
[1] = target: T1, Aβ fibrils (Homo sapiens, UniProt P05067); settings: cited from earlier work; for Binding and coating of Aβ fibrils (inhibition of IgG-Aβ fibril interactions): ELISA with monoclonal anti-Aβ IgG clone 6E10, Inbar et al.
T1 construct: the Aβ fibrils are grown from synthetic Aβ (1-42) peptides by incubating the peptides (74 μM) in ultrapure water
T1 sequence (P05067 672-713 limits assumed): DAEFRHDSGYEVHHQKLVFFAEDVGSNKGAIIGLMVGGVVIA

[2] = target: T2, Aβ peptide (1-42) ion channels (Homo sapiens, UniProt P05067); experiment: Electrophysiological planar lipid bilayer assay for Aβ peptide ion channel activity (bilayer chambers, voltage clamp); format: biochemical; settings: for Inhibition of Aβ pores / ion channel activity of Aβ: electrophysiological screening assay of FIGS. 3-5; for Inhibition of Aβ peptide ion channel formation (pore forming activity): 37 μM Aβ peptide, test compound in molar ratio 1:1, added at the same time as Aβ peptide, planar lipid bilayer; for Disruption of preformed Aβ ion channels: added after current activity was observed
T2 construct: purchased Innovagen, Lund, SE or Bachem Bioscience Inc., King of Prussia, Pa., USA
T2 sequence (P05067 672-713 limits assumed): as above
Excerpt: Ion channel measurements. Screening assays can be performed using single channel recordings in “voltage clamp mode” using Ag/AgCl electrodes (Warner Instruments) in each compartment of the bilayer chambers. Data acquisition and storage can be carried out using custom software in combination with either an EPC-7 patch clamp amplifier from List Medical Electronic (set at a gain of 10 mV pA-1 and a filter cutoff frequency of 3 kHz) or a Geneclamp 500 amplifier from Axon Instruments (with a CV-5B 100GU headstage, set at a gain of 100 mV pA-1 and filter cutoff frequency of 1 kHz). In some embodiments, patch clamp amplifiers, for example, the EPC-7 amplifier can be used for most folded bilayers and the Geneclamp 500 amplifier for most painted bilayers. The data acquisition boards for both amplifiers were set to a sampling frequency of 15 kHz. Current traces can be further filtered using a digital Gaussian low-pass filter with a cutoff frequency of 30 Hz. In some embodiments, the current traces used to generate data that can be recorded at applied potentials 50 mV and filtered at 10 Hz.
Analysis of the single channel current traces can be made by computing histograms of the currents from the original current-time traces with ClampFit 9.2 software from Axon Instruments. From these histograms, the main current values can be extracted by fitting a Gaussian function to the peaks in the histograms. Single channel conductances can refer to the main conductance state (i.e. to the dominant peaks in the current histograms).
The lipid mixture can be made from POPE:POPG (Avanti Polar Lipids) at 25 mg/ml (1:1) in Heptane. The pretreatment lipid solution can be POPE:POPG 20 mg/mL in Hexane. 2. The bilayer is formed in classic bilayer cups and chamber (Warner Instruments). This 2-part system consists of a black Delrin chamber and a cup of Delrin. Cups and chambers are designed such that addition of equal volumes to the cup and chamber (cis and trans sides) results in a balanced solution height, minimizing any pressure gradients across the bilayer membrane.
The bilayer was formed over a 250-μm hole in a partition separating two Delrin compartments, the so called “painting technique.” First, droplets of pretreated lipid solution were placed on both sides of the hole, using 100 μL-Hamilton syringe. Once the droplet of hexane evaporates, both chambers (cis and trans) were symmetrically filled with 900 μL of buffer solution, 100 mM KH2PO4/K2HPO4 pH 7.4, at room temperature.
When the bilayer set-up was already in place with Ag/AgCl electrodes in Faraday cage (a bilayer workstation which provides critical shielding of electromagnetic interference from outside sources and isolate vibration) the lipid solution (POPE:POPG in Heptane) can be painted directly over the hole by using a thin paintbrush. Blowing air underneath the hole using a Pasteur pipette to thin out the bilayer can be used until the appropriate capacitance (80-120 pF) is achieved. A voltage of ±100 mV was applied for at least 10 minutes to test stability of lipid bilayer.
Aβ(1-42) (commercially available from Innovagen, Lund, SE or Bachem Bioscience Inc., King of Prussia, Pa., USA) is initially dissolved in deionized water at 1 mg/ml (221.5 μM) and stored at −20° C. The stock solution can be aliquotted to sufficient amount for each time use (90 μL). After the stable bilayer is constituted, the Aβ(1-42) solution can be added to the trans side of the chamber to obtain a final concentration of 37 μM. The solution is mixed well in the chamber under stirring for 5 minutes.
Congo Red (Sigma) is dissolved in de-ionized (DI) water to achieve a concentration of 2.5 mg/ml (3.58 mM as a stock solution). (−)Nicotine hemisulfate (Sigma, St. Louis, Mo., USA) was diluted to 1.89 mM in DI water. Tannic acid (Riedel-de Haën, Seelze, Germany) is diluted to 20 mM in DI water.

Cc1ccc2c(c1)sc(-c1ccc(N(C)C)cc1)[n+]2C.[Cl-] [ThT, Thioflavin T]
Binding and coating of Aβ fibrils (inhibition of IgG-Aβ fibril interactions) [1]: bind and coat Aβ fibrils

O=S(=O)([O-])c1ccc(O)c2ccccc12.[Na+] [1-naphthol-4-sulfonate]
Binding and coating of Aβ fibrils (inhibition of IgG-Aβ fibril interactions) [1]: do not interact with Aβ fibrils

NCCc1ccc(O)c(O)c1 [dopamine]
Inhibition of Aβ pores / ion channel activity of Aβ [2]: inhibit Aβ pores

O=C(OC[C@H]1O[C@@H](OC(=O)c2cc(O)c(O)c(OC(=O)c3cc(O)c(O)c(O)c3)c2)[C@H](OC(=O)c2cc(O)c(O)c(OC(=O)c3cc(O)c(O)c(O)c3)c2)[C@@H](OC(=O)c2cc(O)c(O)c(OC(=O)c3cc(O)c(O)c(O)c3)c2)[C@@H]1OC(=O)c1cc(O)c(O)c(OC(=O)c2cc(O)c(O)c(O)c2)c1)c1cc(O)c(O)c(OC(=O)c2cc(O)c(O)c(O)c2)c1 [Tannic acid]
Inhibition of Aβ peptide ion channel formation (pore forming activity) [2]: Inhibition of Aβ ion channel formation
Inhibition of Aβ pores / ion channel activity of Aβ [2]: inhibit ion channel activity of Aβ
Inhibition of Aβ pores / ion channel activity of Aβ ([2]; listed as tannic acid): inhibit Aβ pores
Binding to aggregated Aβ fibrils [1]: bind strongly

Nc1c(/N=N/c2ccc(-c3ccc(/N=N/c4cc(S(=O)(=O)O)c5ccccc5c4N)cc3)cc2)cc(S(=O)(=O)O)c2ccccc12 [Congo Red]
Inhibition of Aβ pores / ion channel activity of Aβ [2]: inhibit Aβ pores
Binding to aggregated Aβ fibrils [1]: bind strongly

CN1CCC[C@H]1c1cccnc1 [nicotine, (−)Nicotine hemisulfate]
Inhibition of Aβ peptide ion channel formation (pore forming activity) [2]: eliminated ion channel pore forming activity
Amount of nicotine needed: disruption of preformed channels versus inhibition of de novo formed channels ([2]; comparison of preformed and de novo formed Aβ ion channels): required more nicotine than the inhibition de novo formed ion channels
Inhibition of Aβ pores / ion channel activity of Aβ [2]: inhibit Aβ pores
Concentration dependence of disruption of Aβ peptide ion channel activity ([2]; nicotine added after observing Aβ current activity, 1:1, 1:2, 1:3 and 1:4 molar ratio): concentration-dependent disruption of Aβ peptide ion channel activity
Disruption of preformed Aβ ion channels ([2]; nicotine at 2-fold molar excess with respect to Aβ peptide (1-42)): disrupted preformed ion channels
Disruption of preformed Aβ ion channels ([2]; nicotine at 4-fold molar excess (4:1) with respect to Aβ peptide (1-42)): disrupted preformed ion channels almost completely; also recorded: disrupted preformed Aβ peptide ion channel activity almost completely
Time to almost complete disruption of preformed ion channels ([2]; nicotine at 4-fold molar excess with respect to Aβ peptide (1-42)): ≤ 10 min

Diaminoacridine [DAA]
Binding and coating of Aβ fibrils (inhibition of IgG-Aβ fibril interactions) [1]: bind and coat Aβ fibrils
